Where two headings read alike, the source gives them in different places.
What was measured:
Trichogramma pretiosum = assay: Trichogramma development from eggs to adults on artificial diet with toxin; assay type: in vivo; settings: PA1b added to artificial diet; no difference in developmental times compared to control
Procedure: Trichogramma pretiosium. T191 (Hymenoptera) were grown using the artificial diet described in Grenier et al. ([1998]). The toxin was incorporated into the diet, and the development of insects was monitored from eggs to adults.
All toxicity assays were carried out using a mixture of PA1b isoforms (98% purity by HPLC). All tests were performed on at least 30 insects for assays and for control test (without toxin), except for the three aphid species (50 insects) and for Trichogramma (more than 300 eggs by assays). When adults were used, the insects were synchronized at the imaginal molt. The statistical analyses were performed using the JMP software (SAS, Grégy-sur-Yerres FRA).

[1] = target: PA1b binding protein on membrane extracts; assay: 125I-PA1b binding (competition) on insect membrane extracts; design: species or system Harmonia axyridis; settings: H. axyridis membrane extracts; competition with purified 3741 isoform
Procedure: (§1) The isolation of membrane proteins for binding studies was performed as described by Gressent et al. ([2003]). For PA1b degradation tests, insect extracts were prepared as follows, 1 g of insects were ground with a mortar and pestle in liquid nitrogen. The resulting powder was resuspended in 2 ml of extraction buffer (20 mM Tris-HCl pH 8; 0.25 M sucrose; 2 mM MgCl2). The slurry was centrifuged for 2 min at 1000 g, and the supernatant was stored at -2O°C until required. All the operations were performed at 4°C.
(§2) The peptidic toxin PA1b-3471 isoform was labelled with I^125 to a specific radioactivity of about 900 Ci.mmor^-1, and then used for binding studies with membrane extracts, according to Gressent et al. ([2003]).
(§3) PA1b binding activity was present in all insect species, except for the resistant weevil strains and the pea specific pest Bruchus pisorum, regardless of the sensitivity or insensitivity of these insects to PA1b toxicity, as evaluated from our insect bioassays. […] The relative abundance of the binding sites was also slightly different in this group of species, varying from 10 pmol/mg of protein for T. pretiosum to a maximum of 79 pmol/mg of protein for M. persicae.

[2] = target: PA1b binding protein on membrane extracts; assay: as above; design: species or system Trichogramma pretiosum; settings: T. pretiosum membrane extracts; competition with purified 3741 isoform
Procedure: as §1, §2, §3

[3] = target: PA1b binding protein on membrane extracts; assay: as above; design: species or system Myzus persicae; settings: M. persicae membrane extracts; competition with purified 3741 isoform
Procedure: as §1, §2, §3

[4] = target: PA1b binding protein on membrane extracts; assay: as above; design: species or system Acyrthosiphon pisum; settings: A. pisum membrane extracts; competition with purified 3741 isoform
Procedure: as §1, §2, §3

pronase E type XIV = assay: PA1b degradation assay with commercial protease; assay type: in vitro ADME; settings: 10 µg pronase E, 37°C, one night incubation, C18 HPLC
Procedure: PA1b degradation assays were performed using 10 µg of peptide (PA1b isoform mixture) in a final volume of 100 µl buffer. Assays with commercially (SIGMA, www.sigmaaldrich.com) available enzymes were performed in Glycine-NaOH buffer (20 mM pH 9) at 3O°C for proteinase K (E.C. 3.4.21.64), Tris-HCl buffer (20 mM pH 7.5) + EDTA 10 mM at 37°C for pronase E type XIV, MES-NaOH buffer (20 mM pH 6.2) at 25°C for papain (E.C. 3.4.22.2), Tris-HCl buffer (20 mM pH 7.8) at 25°C for chymotrypsin (E.C. 3.4.21.1), and Tris-HCl buffer (20 mM pH 7.6) at 25°C for trypsin (E.C. 3.4.21.4). Assays were done with 10 µg of each enzyme, and control assays were performed with 10 µg of enzymes denaturated by 10 min boiling. Assays with insect extracts were carried out in 20 mM buffers from pH 3 to 9 (Glycine-HCl, pH 3; sodium acetate pH 4-5; MES-NaOH pH 6; Tris-HCl pH 7-8; Glycine NaOH pH 9) at 3O°C. […]
(§4) For all assays, after a one night incubation, 150 µl of methanol were added to the mixture and incubated for 60 min at 4°C. […] PA1b peptide isoforms were detected by their absorbance at 210 nm, quantified by the measurement of the peak area and with reference to known quantities of pure peptide isoform used as standards.

[5] = tested on: M. brassicae protein extracts; assay: PA1b degradation assay with total insect protein extract; assay type: in vitro ADME, Mamestra brassicae; settings: 200 µg M. brassicae (L3) total protein extract, 10 µg PA1b, pH 3 to 9, 30°C, one night incubation; C18 HPLC; data not shown
Procedure: as §1
(§5) PA1b degradation assays were performed using 10 µg of peptide (PA1b isoform mixture) in a final volume of 100 µl buffer. […]
as §4

[6] = tested on: D. melanogaster protein extracts; assay: as above; assay type: in vitro ADME, Drosophila melanogaster; settings: 200 µg D. melanogaster (L3) total protein extract, 10 µg PA1b, pH 3 to 9, 30°C, one night incubation; C18 HPLC; data not shown
Procedure: as §1, §5, §4

Sitophilus oryzae = settings: three natural S. oryzae strains able to feed on pea seeds; ref Grenier et al. 1997; cited from earlier work
Description: S. oryzae strains resistant to PA1b exist naturally.

Drosophila melanogaster = settings: cited from earlier work
Procedure: However, diet is not sufficient alone to explain insensitivity, as the three aphid species tested were assayed on the same artificial diet with very different results. We can thus suppose ...

[7] = target: PA1b binding protein on membrane extracts; settings: ref Gressent et al (2003), cited from earlier work
Description: Table 1. Affinity (Kd) and relative abundance (Bmax) of the PA1b binding protein on membrane extracts from different insect species and strains. | column: Kd (nM); Bmax (pmol/mg of protein)

Sequence: ASCNGVCSPFEMPPCGTSACRCIPVGLVIGYCR NPSG (bicyclic or more) [PA1b, plant peptide of 37 amino acids purified from pea (Pisum sativum) seeds; entomotoxic cystine-knot peptide with three disulfide bonds]
- growth and development from eggs to adults (Trichogramma pretiosum): normal growth
- Kd [1]: 52 nM
- Kd [2]: 56 nM
- Kd [3]: 62 nM
- Kd [4]: 58 nM
- PA1b recovered after pronase E treatment, relative to control (pronase E type XIV; 10 µg PA1b, Tris-HCl pH 7.5 + EDTA 10 mM): 20 % of the control
- Recovered PA1b, Assays (pronase E type XIV; 10 µg PA1b isoform mixture in 100 µl Tris-HCl 20 mM pH 7.5 + EDTA 10 mM, UV 210 nm, mean of triplicates): 1.7 µg
- recovered PA1b after incubation with insect proteins versus heat-denatured control [5]: without any difference between control and test assays
- recovered PA1b after incubation with insect proteins versus heat-denatured control [6]: without any difference between control and test assays
- resistance of pea-feeding S. oryzae strains to the purified toxin (Sitophilus oryzae): fully resistant
- toxicity to larvae grown on a fruit-based mixture (Drosophila melanogaster; fruit-based mixture diet, dose similar to that used on other insects, delayed larval development, increased larval mortality, ref Gressent, unpublished results): significantly toxic
- sensitivity to the toxin (Drosophila melanogaster; ref Delobel et al.1998): insensitive
- Kd ([7]; S. granarius Brayard membrane extracts): 6.3 nM
- Kd ([7]; S. zeamais Ls membrane extracts): 9 nM

— paper PMC2999418, “Biological Activity and Binding Site Characteristics of the PA1b Entomotoxin on Insects from Different Orders” (Journal of Insect Science, 2007)
